Source: patent US20120264949A1, “Method of Labeling Dopamine D2 Receptor Using Radiosynthesized Ligand of Iodine-123-Epidepride” (ATOMIC ENERGY COUNCIL-INSTITUTE OF NUCLEAR ENERGY RESEARCH, priority 2011, published 2012)

How the values were obtained:
[1] = Lipophilicity, octanol/PBS partition with gamma-counter; format: physicochemical
Protocol: For analyzing lipophilicity of the I-123-Epidepride, a solution of phosphate buffer saline (PBS) is used with lipophilic octanol. After 50 μl of I-123-Epidepride, 0.5 ml of PBS and 0.5 ml of octanol are mixed, a diluted octanol solution is obtained with an aqueous solution which has an equal weight as the octanol solution and then is processed with a gamma-counter. Therein, the lipophilicity of the I-123-Epidepride is expressed as a value of log P and log P is obtained by the following formula: Log P=Log {(Decay corrected activity)organic layer×10/(Decay corrected activity)aqueous layer}.
FIG. 6 and FIG. 7 are views showing lipophilicity and labeling results. […] Besides, the labeling method according to the present disclosure obtains 20 mCi each time for three times with an average radiochemistry purity of 99.55±0.8% and an average yield of 74.83±2.4% (shown in FIG. 7).

dopamine D2 receptors [2] = target: T1, dopamine D2 receptors (Mus musculus, UniProt P61168); test: microSPECT/microCT imaging of mouse brain; format: in vivo; settings: 5 mCi injected, striatum, thalamus and midbrain
T1 construct: from tissue; host or cells: mouse brain in vivo (striatum, thalamus, midbrain)
T1 sequence (P61168 whole entry): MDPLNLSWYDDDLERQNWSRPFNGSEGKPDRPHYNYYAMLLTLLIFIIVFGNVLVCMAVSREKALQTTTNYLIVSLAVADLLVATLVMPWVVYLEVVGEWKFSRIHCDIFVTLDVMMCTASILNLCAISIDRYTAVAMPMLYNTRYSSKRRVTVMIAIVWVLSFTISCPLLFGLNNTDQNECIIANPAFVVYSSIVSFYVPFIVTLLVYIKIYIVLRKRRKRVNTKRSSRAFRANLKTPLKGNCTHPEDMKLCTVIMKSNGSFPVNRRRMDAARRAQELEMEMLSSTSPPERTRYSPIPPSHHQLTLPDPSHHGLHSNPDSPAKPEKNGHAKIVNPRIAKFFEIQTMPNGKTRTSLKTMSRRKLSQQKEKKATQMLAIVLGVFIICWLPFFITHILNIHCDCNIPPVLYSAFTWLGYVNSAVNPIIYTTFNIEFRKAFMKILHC
Protocol: FIG. 9 is a view showing a combined image of a mouse brain obtained through microSPECT and microCT. As shown in the figure, a combined image of a mouse brain is obtained through microSPECT and microCT, where 5 mCi of I-123-Epidepride is injected into the mouse brain.

[3] = Stability after standing 24 hours, radiochemistry purity measured; format: physicochemical; settings: stayed still for 24 hours
Protocol: FIG. 8A and FIG. 8B are views showing stability at 0 hour and 24 hour. As shown in the figures, after the I-123-Epidepride is stayed still for 24 hours, its radiochemistry purity is measured. As shown by the liquid peaks, [32], the stability is higher than 90%.

dopamine D2 receptors [4] = target: dopamine D2 receptors (Homo sapiens, UniProt P14416); settings: imaging agent for dopamine D2 receptors; cited from earlier work
Chain of dopamine D2 receptors (Homo sapiens, UniProt P14416) (P14416 whole entry): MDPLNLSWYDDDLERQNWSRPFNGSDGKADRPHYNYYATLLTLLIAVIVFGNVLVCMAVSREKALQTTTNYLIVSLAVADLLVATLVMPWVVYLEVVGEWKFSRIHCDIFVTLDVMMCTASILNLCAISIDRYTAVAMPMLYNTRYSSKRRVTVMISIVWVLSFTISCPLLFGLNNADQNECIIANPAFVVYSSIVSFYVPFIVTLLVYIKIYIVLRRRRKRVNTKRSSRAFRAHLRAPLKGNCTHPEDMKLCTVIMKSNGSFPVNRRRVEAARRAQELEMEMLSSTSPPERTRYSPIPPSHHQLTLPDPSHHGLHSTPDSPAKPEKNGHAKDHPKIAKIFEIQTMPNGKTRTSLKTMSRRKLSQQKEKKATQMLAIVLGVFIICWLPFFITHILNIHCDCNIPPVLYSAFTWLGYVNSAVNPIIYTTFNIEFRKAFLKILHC

| Compound | log P value [1] | brain uptake in combined microSPECT/microCT image (dopamine D2 receptors [2]) | stability (radiochemistry purity after 24 hours) [3] | Kd (dopamine D2 receptors [4]) |
| --- | --- | --- | --- | --- |
| CCN1CCC[C@H]1CNC(=O)c1cc(I)cc(OC)c1OC [I-123-Epidepride] | 1.76±0.04 | obvious absorption is found in striatum [41], thalamus and midbrain [42] | higher than 90% |  |
| CCN1CCC[C@H]1CNC(=O)c1c(OC)ccc(I)c1O [IBZM] |  |  |  | 0.43 nM |
